Earlier results in patent publication EP0502666B2, “Ingestible compositions containing water-soluble, high-viscosity grade cellulose ethers” (THE UNIVERSITY OF MICHIGAN, priority 1991, dated 1992).

CN(C)C(=N)N=C(N)N [metformin]
patients with side effects that lead to the withdrawal of the drug (in vivo): ~5%
patients with gastrointestinal side effects, initially (usually transient): 5-20%
